Reference: patent US4362746A (priority 1981, dated 1982)
Where a name gives a salt, the structure may show the parent alone. Read-outs that look alike come from different tables or passages of the source.

How the values were obtained:
[1] = system: Influenza A2 /MTL/68; assay: In vitro anti-myxovirus assay, inhibition of hemadsorption, Influenza A2/MTL/68 in G-2 cells; assay type: cell-based, Influenza A2 /Montreal/68; details: for inhibition at 5 µg/mL: 5 ug/ml; for inhibition at 10 µg/mL: 10 ug/ml; for inhibition at 25 µg/mL: 25 ug/ml; for inhibition at 33 µg/mL: 33 ug/ml; for inhibition at 50 µg/mL: 50 ug/ml
[2] = system: Influenza A/Swine/1976/31; assay: microbe, parasite or virus in culture; assay type: cell-based; details: in Sus scrofa
[3] = system: influenza virus A2 /Aichi/2/68; assay type: in vivo, mice (Charles River, random bred white, female); details: for Mean Survival Time / Survival % / Survival N (surviving animals / total infected) / Mean Survival Time Increase: 16 days; for Mean Survival Time Increase: vs virus only; for antiviral effect against influenza virus infection: administered intraperitoneally
[4] = system: G-2 cells; details: maximal non-toxic concentration; G-2 cells; hydrochloride
[5] = in vitro; details: human, g-2 cells; for MNTC: Cytotoxicity CTD0, maximal non-toxic concentration; for CC50: Cytotoxicity CTD50
[6] = Acute toxicity in mice; details: mouse, in vivo
[7] = system: mice; assay: Acute toxicity in mice; details: after 24 hours
[8] = Subacute toxicity in mice; details: mouse, in vivo
[9] = system: mice; assay: Subacute toxicity in mice; details: once a day, seventeenth day of treatment
[10] = system: Influenza A2 /Aichi/2/68; assay: In vitro anti-myxovirus assay, inhibition of hemadsorption, Influenza A2/Aichi/2/68 in G-2 cells; assay type: cell-based; details: for inhibition at 50 µg/mL: 50 ug/ml; for inhibition at 60 µg/mL: 60 ug/ml; for inhibition at 70 µg/mL: 70 ug/ml; for inhibition at 80 µg/mL: 80 ug/ml; for inhibition at 90 µg/mL: 90 ug/ml; for inhibition at 100 µg/mL: 100 ug/ml
[11] = Exp. 1, virus dose 4.1 LD50, 25 mg/kg/day IP
[12] = Exp. 1, virus dose 4.1 LD50, 75 mg/kg/day IP
[13] = Exp. 2, virus dose 2.0 LD50, 75 mg/kg/day IP
[14] = Exp. 3, virus dose 2.6 LD50, 75 mg/kg/day IP
[15] = Exp. 4, virus dose 3.0 LD50, 75 mg/kg/day IP

CN(C)C[C@@H]1C[C@H]2C[C@@H]1c1ccccc12 (relative stereo) [Compound A, endo-2-dimethylaminomethyl-1,2,3,4-tetrahydro-1,4-methanonaphthalene hydrochloride]
inhibition at 5 µg/mL ([1]; 32 TCID50): 0% | inhibition at 10 µg/mL ([1]; 32 TCID50): 23% | inhibition at 25 µg/mL ([1]; 32 TCID50): 76% | inhibition at 33 µg/mL ([1]; 32 TCID50): 78% | inhibition at 50 µg/mL ([1]; 32 TCID50): 97% | inhibition at 5 µg/mL ([1]; 316 TCID50): 0% | inhibition at 10 µg/mL ([1]; 316 TCID50): 0% | inhibition at 25 µg/mL ([1]; 316 TCID50): 27% | inhibition at 33 µg/mL ([1]; 316 TCID50): 52% | inhibition at 50 µg/mL ([1]; 316 TCID50): 53% | inhibition at 5 µg/mL ([2]; 56 TCID50, 5 ug/ml): 0% | inhibition at 10 µg/mL ([2]; 56 TCID50, 10 ug/ml): 37% | inhibition at 25 µg/mL ([2]; 56 TCID50, 25 ug/ml): 85% | inhibition at 33 µg/mL ([2]; 56 TCID50, 33 ug/ml): 82% | inhibition at 50 µg/mL ([2]; 56 TCID50, 50 ug/ml): 97% | inhibition at 75 µg/mL ([2]; 56 TCID50, 75 ug/ml): 100% | inhibition at 5 µg/mL ([2]; 562 TCID50, 5 ug/ml): 0% | inhibition at 10 µg/mL ([2]; 562 TCID50, 10 ug/ml): 0% | inhibition at 25 µg/mL ([2]; 562 TCID50, 25 ug/ml): 0% | inhibition at 33 µg/mL ([2]; 562 TCID50, 33 ug/ml): 37% | inhibition at 50 µg/mL ([2]; 562 TCID50, 50 ug/ml): 72% | inhibition at 75 µg/mL ([2]; 562 TCID50, 75 ug/ml): 73% | Mean Survival Time [3, 11]: 12.7 days | Survival % [3, 11]: 30% | Survival N (surviving animals / total infected) [3, 11]: 6/20 | Mean Survival Time Increase [3, 11]: +0.5 Days | antiviral effect against influenza virus infection [3]: significant antiviral effect | Cytotoxicity CTD0 [4]: 50 µg/mL | MNTC [5]: 75 µg/mL | CC50 [5]: 100 µg/mL | LD50 at 24 h ([6]; ip): 160 mg/kg | NOAEL at 24 h ([6]; ip): 25 mg/kg/day | LD50 at 24 h ([6]; po): > 750 mg/kg | NOAEL at 24 h ([6]; po): 200 mg/kg/day | Acute LD0 (non-lethal dose) ([7]; IP): 75 mg/kg/day | Acute LD0 (non-lethal dose) ([7]; PO): > 750 mg/kg/day | LD50 at 408 h ([8]; ip): 125 mg/kg | NOAEL at 408 h ([8]; ip): 25 mg/kg/day | LD50 at 408 h ([8]; po): > 750 mg/kg | NOAEL at 408 h ([8]; po): 300 mg/kg/day | Subacute LD0 (non-lethal dose) ([9]; IP): 75 mg/kg/day | Subacute LD0 (non-lethal dose) ([9]; PO): > 750 mg/kg/day

NC12CC3CC(CC(C3)C1)C2 [AMANTADINE HYDROCHLORIDE, reference compound]
inhibition at 50 µg/mL ([1]; 316 TCID50): 0% | inhibition at 60 µg/mL ([1]; 316 TCID50, 60 ug/ml): 0% | inhibition at 70 µg/mL ([1]; 316 TCID50, 70 ug/ml): 16% | inhibition at 80 µg/mL ([1]; 316 TCID50, 80 ug/ml): 42% | inhibition at 90 µg/mL ([1]; 316 TCID50, 90 ug/ml): 46% | inhibition at 100 µg/mL ([1]; 316 TCID50, 100 ug/ml): 54% | inhibition at 50 µg/mL ([10]; 52 TCID50): 0% | inhibition at 60 µg/mL ([10]; 52 TCID50): 53% | inhibition at 70 µg/mL ([10]; 52 TCID50): 83% | inhibition at 80 µg/mL ([10]; 52 TCID50): 70% | inhibition at 90 µg/mL ([10]; 52 TCID50): 97% | inhibition at 100 µg/mL ([10]; 52 TCID50): 87% | inhibition at 50 µg/mL ([10]; 100 TCID50): 0% | inhibition at 60 µg/mL ([10]; 100 TCID50): 0% | inhibition at 70 µg/mL ([10]; 100 TCID50): 33% | inhibition at 80 µg/mL ([10]; 100 TCID50): 27% | inhibition at 90 µg/mL ([10]; 100 TCID50): 67% | inhibition at 100 µg/mL ([10]; 100 TCID50): 43% | inhibition at 30 µg/mL ([2]; 178 TCID50, 30 ug/ml): 0% | inhibition at 40 µg/mL ([2]; 178 TCID50, 40 ug/ml): 17% | inhibition at 50 µg/mL ([2]; 178 TCID50, 50 ug/ml): 80% | inhibition at 60 µg/mL ([2]; 178 TCID50, 60 ug/ml): 90% | inhibition at 70 µg/mL ([2]; 178 TCID50, 70 ug/ml): 93% | inhibition at 80 µg/mL ([2]; 178 TCID50, 80 ug/ml): 100% | inhibition at 90 µg/mL ([2]; 178 TCID50, 90 ug/ml): 100% | inhibition at 100 µg/mL ([2]; 178 TCID50, 100 ug/ml): 100% | inhibition at 30 µg/mL ([2]; 316 TCID50, 30 ug/ml): 0% | inhibition at 40 µg/mL ([2]; 316 TCID50, 40 ug/ml): 10% | inhibition at 50 µg/mL ([2]; 316 TCID50, 50 ug/ml): 67% | inhibition at 70 µg/mL ([2]; 316 TCID50, 70 ug/ml): 97% | inhibition at 80 µg/mL ([2]; 316 TCID50, 80 ug/ml): 100% | inhibition at 90 µg/mL ([2]; 316 TCID50, 90 ug/ml): 100% | inhibition at 100 µg/mL ([2]; 316 TCID50, 100 ug/ml): 100% | Mean Survival Time [3, 12]: 14.1 days | Survival % [3, 12]: 55% | Survival N (surviving animals / total infected) [3, 12]: 11/20 | Mean Survival Time Increase [3, 12]: +1.9 Days | Mean Survival Time [3, 13]: 15.3 days | Survival % [3, 13]: 80% | Survival N (surviving animals / total infected) [3, 13]: 16/20 | Mean Survival Time Increase [3, 13]: +2.9 Days | Mean Survival Time [3, 14]: 15.1 days | Survival % [3, 14]: 80% | Survival N (surviving animals / total infected) [3, 14]: 16/20 | Mean Survival Time Increase [3, 14]: +4.0 Days | Mean Survival Time [3, 15]: 15.0 days | Survival % [3, 15]: 79% | Survival N (surviving animals / total infected) [3, 15]: 15/19 | Mean Survival Time Increase [3, 15]: +3.7 Days | antiviral effect against influenza virus infection [3]: significant antiviral effect | MNTC [5]: 100 µg/mL | CC50 [5]: > 100 µg/mL
